According to US8299048B2, “Hexahydrocyclopentyl[f]indazole sulfonamides and derivatives thereof as selective glucocorticoid receptor modulators” (Merck Sharp & Dohme Corp., priority 2008, dated 2012):

Biological target: T1, human GR (Homo sapiens, UniProt P04150)
T1 sequence (P04150 1-777): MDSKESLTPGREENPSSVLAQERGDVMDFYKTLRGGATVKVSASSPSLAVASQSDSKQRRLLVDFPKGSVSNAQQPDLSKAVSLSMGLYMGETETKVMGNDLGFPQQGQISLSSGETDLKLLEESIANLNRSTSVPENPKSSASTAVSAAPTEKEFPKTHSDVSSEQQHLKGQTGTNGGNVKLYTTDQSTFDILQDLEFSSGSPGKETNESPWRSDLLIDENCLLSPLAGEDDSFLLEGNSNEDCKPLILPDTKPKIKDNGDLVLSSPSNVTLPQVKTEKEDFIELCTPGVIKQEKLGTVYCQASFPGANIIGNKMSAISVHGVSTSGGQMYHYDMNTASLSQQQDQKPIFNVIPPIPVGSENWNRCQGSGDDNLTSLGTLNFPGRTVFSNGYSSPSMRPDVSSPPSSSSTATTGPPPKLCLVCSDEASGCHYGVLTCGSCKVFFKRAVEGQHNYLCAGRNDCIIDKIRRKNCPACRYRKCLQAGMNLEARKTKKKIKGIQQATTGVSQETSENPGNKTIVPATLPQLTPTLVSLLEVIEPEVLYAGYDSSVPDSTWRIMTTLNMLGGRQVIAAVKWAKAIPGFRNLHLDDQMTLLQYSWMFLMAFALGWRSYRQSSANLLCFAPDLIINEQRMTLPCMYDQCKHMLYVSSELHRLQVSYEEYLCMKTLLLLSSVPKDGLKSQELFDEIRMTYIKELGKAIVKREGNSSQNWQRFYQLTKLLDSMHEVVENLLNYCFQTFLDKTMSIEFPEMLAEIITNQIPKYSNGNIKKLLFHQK
Experiment: Trans-Activation Modulation of Glucocorticoid Receptor (GRAMMER), MMTV-LUC reporter, agonist mode
Format: cell-based
Design: endogenous in cells
Details: for Emax: A549, A549 cells, maximum activity, read-out: Transactivation A549 Cells GRAMMER Emax; for EC50: A549 cells, inflection point, read-out: Transactivation A549 Cells GRAMMER IP
Excerpt: This assay assesses the ability of test compounds to control transcription from the MMTV-LUC reporter gene in lung adenocarcinoma A549 cells or MDA-MB-453 cells, a human breast cancer cell line that naturally expresses the human GR. The assay measures induction of a modified MMTV LTR/promoter linked to the LUC reporter gene.
The routine transient assay consists of plating 7,000-25,000 cells/well of a white, clear-bottom 96-well plate. Alternatively, 384-well plates can be used at a cell concentration of 10,000/well. The media that the cells are plated in is “exponential growth medium” which consists of phenol red-free RPMI1640 containing 10% FBS, 4 mM L-glutamine, 20 mM HEPES, 10 ug/mL human insulin, and 20 ug/mL gentamicin. Incubator conditions are 37° C. and 5% CO2. The transfection is done in batch mode. The cells are trypsinized and counted to the right cell number in the proper amount of fresh media. It is then gently mixed with the FuGene6/DNA mix and plated onto the 96 or 384-well plate, all the wells receive 100 uL or 40 uL, respectively, of medium+lipid/DNA complex then incubated 37° C. overnight. The transfection cocktail consists of serum-free OptiMEM, FuGene6 reagent and DNA. The manufacturer's (Roche Biochemical) protocol for cocktail setup is as follows: The lipid to DNA ratio is approximately 2.5:1 and the incubation time is 20 min at room temperature. Sixteen to 24 hours after transfection, the cells are treated with dexamethasone to a final concentration of 10 nM as well as the compound of interest, such that final DMSO (vehicle) concentration is equal to or less than 1%. Each plate also contains samples that are treated with 10 nM dexamethasone alone, which is used as the 100% activity control. The cells are exposed to the compounds for 24 hours. After 24 hours, the cells are lysed by a Promega cell culture lysis buffer for approximately 30 min and then the luciferase activity in the extracts is assayed in the 96-well format luminometer. In 384-well format, Steady-Glo (Promega) or Steady-Lite (PerkinElmer) can be used by adding an equal volume of reagent to the media present in each well. Activity induced by 10 nM dexamethasone alone is set at 100% activity. Antagonist activity is calculated by determining the decrease in dexamethasone-induced activity in response to compound treatment relative to samples that were treated with dexamethasone alone. […] This transactivation assay can be performed in an agonist and antagonist mode to identify these different activities.

| Emax [%] | EC50 [µM] | Compound |
| --- | --- | --- |
| 80.3 | 0.161 | C[C@@H](CN(C[C@H]1CCC2=Cc3c(cnn3-c3ccc(F)cc3)C[C@@]21C)S(=O)(=O)CC(F)(F)F)OS(=O)(=O)CC(F)(F)F [Example 114, (1S)-2-{{[(4αR,5S)-1-(4-fluorophenyl)-4α-methyl-1,4,4α,5,6,7-hexahydrocyclopenta[f]indazol-5-yl]methyl}[(2,2,2-trifluoroethyl)sulfonyl]amino}-1-methylethyl 2,2,2-trifluoroethanesulfonate] |
| 29 | 0.989 | CCCS(=O)(=O)N(CC(O)C(F)F)C[C@H]1CCC2=Cc3c(cnn3-c3ccc(F)cc3)C[C@@]21C (stereo partly drawn) [Example 155, N-(3,3-difluoro-2-hydroxypropyl)-N-{[(4αR,5S)-1-(4-fluorophenyl)-4α-methyl-1,4,4α,5,6,7-hexahydrocyclopenta[f]indazol-5-yl]methyl}propane-1-sulfonamide] |
| 83.8 | 0.0489 | COCCN(C[C@H]1CCC2=Cc3c(cnn3-c3ccc(F)cc3)C[C@@]21C)S(=O)(=O)CC(F)(F)F [Example 97, 2,2,2-trifluoro-N-{[(4αR,5S)-1-(4-fluorophenyl)-4α-methyl-1,4,4α,5,6,7-hexahydrocyclopenta[f]indazol-5-yl]methyl}-N-(2-methoxyethyl)ethanesulfonamide] |
| 78.1 | 0.203 | C[C@]12Cc3cnn(-c4ccccc4)c3C=C1CC[C@@H]2CN(CCc1ccccn1)S(=O)(=O)CC(F)(F)F [Example 138, 2,2,2-trifluoro-N-{[(4αR,5S)-4α-methyl-1-phenyl-1,4,4α,5,6,7-hexahydrocyclopenta[f]indazol-5-yl]methyl}-N-(2-pyridin-2-ylethyl)ethanesulfonamide] |
| 78.3 | 0.203 | CCCCS(=O)(=O)N(CCc1ccccc1F)C[C@H]1CCC2=Cc3c(cnn3-c3ccc(F)cc3)C[C@@]21C [Example 102, N-[2-(2-fluorophenyl)ethyl]-N-{[(4αR,5S)-1-(4-fluorophenyl)-4α-methyl-1,4,4α,5,6,7-hexahydrocyclopenta[f]indazol-5-yl]methyl}butane-1-sulfonamide] |
| 12.3 | 0.615 | C[C@]12Cc3cnn(-c4ccc(F)cc4)c3C=C1CC[C@@H]2CN(CC1CC1)S(=O)(=O)c1ccc(-c2ccccc2)cc1 [Example 10, N-(cyclopropylmethyl)-N-{[(4αR,5S)-1-(4-fluorophenyl)-4α-methyl-1,4,4α,5,6,7-hexahydrocyclopenta[f]indazol-5-yl]methyl}biphenyl-4-sulfonamide] |
| 76.7 | 0.239 | Cn1cc(S(=O)(=O)N(CCc2ccccc2F)C[C@H]2CCC3=Cc4c(cnn4-c4ccc(F)cc4)C[C@@]32C)c(C(F)(F)F)n1 [Example 98, N-[2-(2-fluorophenyl)ethyl]-N-{[(4αR,5S)-1-(4-fluorophenyl)-4α-methyl-1,4,4α,5,6,7-hexahydrocyclopenta[f]indazol-5-yl]methyl}-1-methyl-3-(trifluoromethyl)-1H-pyrazole-4-sulfonamide] |
| 66.1 | 0.369 | C[C@]12Cc3cnn(-c4ccc(F)cc4)c3C=C1CC[C@@H]2CN(CCc1ccc(O)cc1)S(=O)(=O)CC(F)(F)F [Example 130, 2,2,2-trifluoro-N-{[(4αR,5S)-1-(4-fluorophenyl)-4α-methyl-1,4,4α,5,6,7-hexahydrocyclopenta[f]indazol-5-yl]methyl}-N-[2-(4-hydroxyphenyl)ethyl]ethanesulfonamide] |
| 67.2 | 0.948 | C[C@]12Cc3cnn(-c4ccc(F)cc4)c3C=C1CC[C@@H]2CN(CCc1ccncc1)S(=O)(=O)CC(F)(F)F [Example 129, 2,2,2-trifluoro-N-{[(4αR,5S)-1-(4-fluorophenyl)-4α-methyl-1,4,4α,5,6,7-hexahydrocyclopenta[f]indazol-5-yl]methyl}-N-(2-pyridin-4-ylethyl)ethanesulfonamide] |
| 4.9 | 0.037 | CN1CCOc2cc(S(=O)(=O)N(CC3CC3)C[C@H]3CCC4=Cc5c(cnn5-c5ccc(F)cc5)C[C@@]43C)ccc21 [Example 8, N-(cyclopropylmethyl)-N-{[(4αR,5S)-1-(4-fluorophenyl)-4α-methyl-1,4,4α,5,6,7-hexahydrocyclopenta[f]indazol-5-yl]methyl}-4-methyl-3,4-dihydro-2H-1,4-benzoxazine-7-sulfonamide] |
| 8.9 | 0.502 | C[C@]12Cc3cnn(-c4ccc(F)cc4)c3C=C1CC[C@@H]2CN(CCc1ccccc1O)S(=O)(=O)Cc1cccc(C(F)(F)F)c1 [Example 122, N-{[(4αR,5S)-1-(4-fluorophenyl)-4α-methyl-1,4,4α,5,6,7-hexahydrocyclopenta[f]indazol-5-yl]methyl}-N-[2-(2-hydroxyphenyl)ethyl]-1-[3-(trifluoromethyl)phenyl]methanesulfonamide] |
| 60.2 | 0.204 | C[C@]12Cc3cnn(-c4ccc(F)cc4)c3C=C1CC[C@@H]2CN(CC(OS(=O)(=O)CC(F)(F)F)c1ccccn1)S(=O)(=O)CC(F)(F)F (stereo partly drawn) [Example 145, 2-{{[(4αR,5S)-1-(4-fluorophenyl)-4α-methyl-1,4,4α,5,6,7-hexahydrocyclopenta[f]indazol-5-yl]methyl}[(2,2,2-trifluoroethyl)sulfonyl]amino}-1-pyridin-2-ylethyl 2,2,2-trifluoroethanesulfonate] |
| 67.9 | 0.232 | COc1ccc(CCN(C[C@H]2CCC3=Cc4c(cnn4-c4ccc(F)cc4)C[C@@]32C)S(=O)(=O)CC(F)(F)F)cc1 [Example 127, 2,2,2-trifluoro-N-{[(4αR,5S)-1-(4-fluorophenyl)-4α-methyl-1,4,4α,5,6,7-hexahydrocyclopenta[f]indazol-5-yl]methyl}-N-[2-(4-methoxyphenyl)ethyl]ethanesulfonamide] |
| 64.9 | 0.397 | C[C@]12Cc3cnn(-c4ccc(F)cc4)c3C=C1CC[C@@H]2CN(CCc1ccccc1F)S(=O)(=O)c1ccccc1Cl [Example 100, 2-chloro-N-[2-(2-fluorophenyl)ethyl]-N-{[(4αR,5S)-1-(4-fluorophenyl)-4α-methyl-1,4,4α,5,6,7-hexahydrocyclopenta[f]indazol-5-yl]methyl}benzenesulfonamide] |
| 37.4 | 0.571 | C[C@]12Cc3cnn(-c4ccc(F)cc4)c3C=C1CC[C@@H]2CN(CCc1ccccc1O)S(=O)(=O)Cc1cccnc1 [Example 131, N-{[(4αR,5S)-1-(4-fluorophenyl)-4α-methyl-1,4,4α,5,6,7-hexahydrocyclopenta[f]indazol-5-yl]methyl}-N-[2-(2-hydroxyphenyl)ethyl]-1-pyridin-3-ylmethanesulfonamide] |
| 22.6 | 0.441 | C[C@]12Cc3cnn(-c4ccccc4)c3C=C1CC[C@@H]2CN(CCc1ccccc1O)S(=O)(=O)Cc1cccnc1 [Example 141, N-[2-(2-hydroxyphenyl)ethyl]-N-{[(4αR,5S)-4α-methyl-1-phenyl-1,4,4α,5,6,7-hexahydrocyclopenta[f]indazol-5-yl]methyl}-1-pyridin-3-ylmethanesulfonamide] |
| 26.1 | 0.786 | C[C@@H](O)CN(C[C@H]1CCC2=Cc3c(cnn3-c3ccc(F)cc3)C[C@@]21C)S(=O)(=O)c1ccc(F)c(Cl)c1 [Example 115, 3-chloro-4-fluoro-N-{[(4αR,5S)-1-(4-fluorophenyl)-4α-methyl-1,4,4α,5,6,7-hexahydrocyclopenta[f]indazol-5-yl]methyl}-N-[(2R)-2-hydroxypropyl]benzenesulfonamide] |
